Data as given in US20260193149A1, “[…] USEFUL MINERAL AMINO ACID COMPLEXES” (Statera Ag, LLC, priority 2022, published 2026).
“And” between values parts separate entries of the source, which are not always exact repeats. Equal entries are not always repeated.

Tests used:
[1] = test system: corn; assay: Boron absorption into corn leaf after foliar application, growth stage V5 (Example 4)
Method: Each solution was applied independently of one another at these rates, and the applications emulated commercial application conditions, with 30-inch spacings. The test solutions were applied to three different fields to allow for data replication. The corn was at growth stage V5 during the test. Each test solution was evenly applied using a portable foliar applicator ([…] M18 sprayer with a four-gallon tank). Application time per row was recorded to allow for the calculation of an average application rate of the applicator. Any remaining application solution was weighed to allow for the exact calculation of applied solution per acre (converted below to ounces per acre). The solution application rates are reported below in Table 11 and boron application rates are reported below in Table 12. Applications were done in the heat of the day (96° F.), with minimal wind to preclude drift. Control strips for each product at both application rates were identified, and tissue samples from the control strips were collected to reflect an application rate of 0.00 ounces of product per 68 ounces of water.
Tissues were collected after two days using standard tissue collection procedures. Twelve top collar leaves were collected per row. The leaf samples were placed in paper bags and sent to a commercial lab for leaf mineral analysis using ICP-AA.
The application rates reported above Table 11 were adjusted by the concentration of the applied product so that the data could be compared on an equivalent basis, which are reported in Table 12. Tissue boron was regressed against the adjusted applied rates using the Fit Y×X model of SAS JMP (v. 15.0). The Experimental Unit was Field.
Five chemical compounds containing boron were evaluated. The slope of the line was defined according to the following equation: […]

[2] = test system: corn; assay: Boron absorption into corn leaf after foliar application, growth stage V7 (Example 5); assay type: in vivo; conditions: leaves collected after two days
Method: The same procedure of Example 4 was followed for this Example, and the same application solutions at rate 2 were used and applied to three separate fields of corn at growth stage V7.
Twelve top collar leaves were collected per row.
Tissue boron data were analyzed using the Fit Y×X module of SAS JMP (v. 15.0). The tissue data were compared using the Oneway Analysis option. Means for boric acid and boron lysinate were separated using the Student's t-test.

[3] = corn V5, foliar application, top collar leaves collected after two days, slope of tissue boron vs applied boron

B Absorption, ppm/oz applied B ([1]; corn, in vivo, 2 days) | increase of corn tissue boron for every ounce of boron applied ([1]; corn, in vivo, 2 days) | Compound | decrease of boron absorbed into leaf tissue compared to boric acid ([1]; corn V5, Example 4) | B Absorption, ppm/oz applied B [1, 3] | boron absorption greater than boric acid ([1]; corn V5, Example 4) | increase of corn tissue boron for every ounce of boron applied ([1]; corn V5, Example 4, per ounce applied boron) | Boron Absorption, ppm/oz B [2] | Boron Absorption, ppm/oz B ([2]; listed as boron lysinate)
 |  | ethanolamine boron [Boron ethanolamine, reference compound] | 0.45 ppm | 4.13 ppm/oz applied B |  |  |  | 
4.58 ppm/oz applied B | 4.58 ppm | OB(O)O [Boric acid, boric acid, reference compound] |  |  |  |  |  | 
 |  | boron lysinate |  | 7.66 ppm/oz applied B | 3.92 ppm and 3.08 ppm | 7.66 ppm | 13.13 ppm/oz B and 13.13^b ppm/oz B | 13.13 ppm/oz B
